{
  "source": "patent US20240074997A1",
  "about": "(priority 2022, published 2024)",
  "key": {"[1]": {"conditions": "cited from earlier work"}, "RM-1 cells": {"system": "RM-1 cells", "conditions": "cited from earlier work"}, "RARγ": {"biological_target": "T1, RARγ (Homo sapiens, UniProt P13631)", "T1 sequence (P13631 1-454)": "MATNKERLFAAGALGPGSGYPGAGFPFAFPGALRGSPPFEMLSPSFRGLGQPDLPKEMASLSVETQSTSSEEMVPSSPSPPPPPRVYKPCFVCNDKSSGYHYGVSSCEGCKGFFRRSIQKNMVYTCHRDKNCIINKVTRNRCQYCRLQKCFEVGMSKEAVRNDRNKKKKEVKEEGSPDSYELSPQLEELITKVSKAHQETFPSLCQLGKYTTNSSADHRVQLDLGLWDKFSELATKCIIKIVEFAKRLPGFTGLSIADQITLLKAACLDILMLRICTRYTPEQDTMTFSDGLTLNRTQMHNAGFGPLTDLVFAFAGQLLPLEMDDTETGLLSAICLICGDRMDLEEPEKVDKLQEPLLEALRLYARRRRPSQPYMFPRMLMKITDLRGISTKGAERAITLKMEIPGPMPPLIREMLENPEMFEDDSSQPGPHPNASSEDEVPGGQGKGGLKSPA", "conditions": "cited from earlier work"}, "[2]": {"conditions": "cited from earlier work", "remark": "listed apart in the source"}, "RARβ": {"biological_target": "T2, RARβ (Homo sapiens, UniProt P10826)", "T2 sequence (P10826 1-455)": "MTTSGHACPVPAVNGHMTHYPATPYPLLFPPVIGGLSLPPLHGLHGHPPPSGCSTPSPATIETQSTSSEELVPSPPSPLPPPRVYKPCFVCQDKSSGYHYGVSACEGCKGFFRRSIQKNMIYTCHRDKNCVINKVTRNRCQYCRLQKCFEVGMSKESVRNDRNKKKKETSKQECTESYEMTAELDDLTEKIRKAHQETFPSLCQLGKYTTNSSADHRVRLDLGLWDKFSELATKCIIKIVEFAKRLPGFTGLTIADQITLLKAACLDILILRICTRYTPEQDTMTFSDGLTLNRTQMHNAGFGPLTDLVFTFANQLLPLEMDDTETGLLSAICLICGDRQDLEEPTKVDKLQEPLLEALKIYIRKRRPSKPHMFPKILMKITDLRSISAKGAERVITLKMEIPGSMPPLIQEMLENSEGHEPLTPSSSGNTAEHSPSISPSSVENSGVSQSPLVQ", "conditions": "cited from earlier work"}, "zebrafish larvae": {"system": "zebrafish larvae", "experiment": "Zebrafish inflammation model (tail fin clip, neutrophil migration)", "format": "in vivo", "conditions": "4 hours, clipped 3 day old larvae, p<0.001 vs. Vehicle", "description": "The details of this model have been described previously (Xie, Y., Meijer, […]. Modeling Inflammation in Zebrafish for the Development of Anti-inflammatory Drugs. Front. Cell Dev. Biol. 8, 620984 (2021)). In short, a zebrafish model with fluorescently labeled neutrophils is used. The tip of the tail fin of 3 day old zebrafish larvae are clipped. As a result, a local inflammatory response is initiated and evokes to leukocyte migration towards the wound. The number of attracted neutrophils is recorded and serves as parameters for inflammation. […] (Significance ***: p<0.001, as determined by Student's t-Test vs. Vehicle)"}, "[3]": {"conditions": "cited from earlier work", "remark": "listed apart in the source"}, "[4]": {"conditions": "cited from earlier work", "remark": "listed apart in the source"}, "[5]": {"biological_target": "T3, glucocorticoid receptor recombinant human protein, ligand binding domain (Homo sapiens, UniProt P04150)", "T3 construct": "purchased Thermo Fisher Scientific A15668", "T3 sequence (P04150 524-758 limits assumed)": "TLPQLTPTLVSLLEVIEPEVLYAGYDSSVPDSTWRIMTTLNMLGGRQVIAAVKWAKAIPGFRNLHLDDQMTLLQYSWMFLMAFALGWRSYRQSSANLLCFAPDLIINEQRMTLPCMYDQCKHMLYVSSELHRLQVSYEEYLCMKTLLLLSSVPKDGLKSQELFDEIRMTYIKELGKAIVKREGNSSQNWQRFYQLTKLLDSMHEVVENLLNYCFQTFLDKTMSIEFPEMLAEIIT", "experiment": "glucocorticoid receptor LBD coregulator-derived peptide array", "format": "biochemical", "conditions": "Example 2, 0.1 mM vs solvent 2% DMSO, FIG. 6", "method": "EXAMPLE 1: Interactions between the glucocorticoid receptor ligand binding domain (LBD) and coregulator-derived peptides were determined using the method as described by Zalachoras et al 2009^xl. Each peptide array consisting of 11 coregulator peptides as described in Table 1 were incubated with a reaction mixture of 1 nM purified glucocorticoid receptor recombinant human protein, ligand binding domain, (Thermo Fisher Scientific, cat #A15668), ALEXA488-conjugated anti-Glutathione S-Transferase (GST) antibody and buffer F (PV4689, A-11131, and PV4547; Invitrogen). […] Incubation was performed at 20° C. on the peptide array, using one two arrays per condition. glucocorticoid receptor binding to each peptide on the array, reflected by fluorescent signal, was quantified by image analysis using R-based software (Precision Medicine Lab). […] Glucocorticoid receptor binding to each peptide on the array, reflected by fluorescent signal, was quantified by image analysis using R-based software (Precision Medicine Lab). […]\nThe use of glucocorticoid receptor LBD was as described in Experiment 1. […] Glucocorticoid receptor binding to each peptide on the array, reflected by fluorescent signal, was quantified by image analysis using R-based software (Precision Medicine Lab)."}, "glucocorticoid receptor": {"biological_target": "T4, glucocorticoid receptor (Homo sapiens, UniProt P04150)", "T4 sequence (P04150 1-777)": "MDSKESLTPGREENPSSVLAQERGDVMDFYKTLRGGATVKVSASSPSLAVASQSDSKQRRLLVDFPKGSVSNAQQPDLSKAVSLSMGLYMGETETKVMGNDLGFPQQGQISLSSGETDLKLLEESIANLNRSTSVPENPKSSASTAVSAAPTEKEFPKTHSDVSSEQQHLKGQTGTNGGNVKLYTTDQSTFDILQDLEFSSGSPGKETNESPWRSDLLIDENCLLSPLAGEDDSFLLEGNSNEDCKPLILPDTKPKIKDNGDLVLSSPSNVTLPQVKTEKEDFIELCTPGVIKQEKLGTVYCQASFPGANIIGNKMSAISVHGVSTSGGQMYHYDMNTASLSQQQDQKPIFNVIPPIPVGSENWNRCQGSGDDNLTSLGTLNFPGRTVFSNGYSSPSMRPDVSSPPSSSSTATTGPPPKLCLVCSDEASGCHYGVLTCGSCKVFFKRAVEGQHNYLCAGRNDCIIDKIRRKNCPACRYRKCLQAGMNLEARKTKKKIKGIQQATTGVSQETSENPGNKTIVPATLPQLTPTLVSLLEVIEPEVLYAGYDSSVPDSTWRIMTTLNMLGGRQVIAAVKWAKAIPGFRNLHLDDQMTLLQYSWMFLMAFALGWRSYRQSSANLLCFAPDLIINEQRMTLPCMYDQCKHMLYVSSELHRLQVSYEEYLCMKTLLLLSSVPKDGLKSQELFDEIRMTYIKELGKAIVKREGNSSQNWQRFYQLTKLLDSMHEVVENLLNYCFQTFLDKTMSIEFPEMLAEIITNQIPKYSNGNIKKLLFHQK", "conditions": "cited from earlier work"}},
  "data": [
    {"smiles": "C[C@@H]1C[C@H]2[C@@H]3C[C@H](F)C4=CC(=O)C=C[C@]4(C)[C@@]3(F)[C@@H](O)C[C@]2(C)[C@@]1(OC(=O)C1C(C)(C)C1(C)C)C(=O)OCC#N", "note": "[GW870086]", "values": [
      {"measurement": "clinical efficacy in atopic dermatitis", "setting": "[1]; atopic dermatitis patients", "value": "did not achieve significant clinical efficacy"},
      {"measurement": "skin atrophy", "setting": "[1]; healthy adults", "value": "does not include skin atrophy"}
    ]},
    {"smiles": "COc1ccc(-c2ccc3cc(C(=O)O)ccc3c2)cc1C12CC3CC(CC(C3)C1)C2", "note": "[Adapalene, 6-[3-(1-adamantyl)-4-methoxyphenyl]naphthalene-2-carboxylic acid]", "values": [
      {"measurement": "migration ability of RM-1 cells (wound-healing assay)", "setting": "RM-1 cells; dose-dependent", "value": "significantly suppressed"},
      {"measurement": "invasiveness of RM-1 cells", "setting": "RM-1 cells; high doses", "value": "decrease the invasiveness"},
      {"measurement": "affinity for RARγ", "setting": "RARγ", "value": "high affinity"},
      {"measurement": "pKa", "setting": "[2]", "value": 4.23},
      {"measurement": "pKa (strongest acidic)", "setting": "[2]", "value": 3.99},
      {"measurement": "pKa (strongest basic)", "setting": "[2]", "value": "−4.8"},
      {"measurement": "affinity for RARβ", "setting": "RARβ", "value": "high affinity"},
      {"measurement": "anti-inflammatory action (number of attracted neutrophils)", "setting": "zebrafish larvae; 1 μM", "value": "significant anti-inflammatory action"},
      {"measurement": "degradation in acidic condition", "setting": "[3]; 0.3 M HCl solution, 10 min of boiling", "value": 28, "unit": "%"},
      {"measurement": "stability in alkaline condition", "setting": "[3]; 2 M NaOH solution, boiled for 2 h", "value": "stable"},
      {"measurement": "degradation in oxidative conditions", "setting": "[3]; 80° C. for 10 min with 30% hydrogen peroxide solution", "value": 30, "unit": "%"},
      {"measurement": "degradation on exposure to UV light", "setting": "[3]; 254 and 366 nm, 12 h", "value": 25, "unit": "%"},
      {"measurement": "solubility in dimethyl sulfoxide", "setting": "[4]; 25° C.", "value": "> 10000", "unit": "µg/mL"},
      {"measurement": "solubility in dimethylformamide", "setting": "[4]; 25° C.", "value": 5000, "unit": "µg/mL"},
      {"measurement": "solubility in ethanol", "setting": "[4]; 25° C.", "value": "< 1000", "unit": "µg/mL"},
      {"measurement": "solubility in tetrahydrofuran", "setting": "[4]; 25° C.", "value": 5000, "unit": "µg/mL"},
      {"measurement": "solubility in water", "setting": "[4]", "value": "poor solubility"}
    ]},
    {"smiles": "CC1=C(/C=C/C(C)=C/C=C/C(C)=C/C(=O)O)C(C)(C)CCC1", "note": "[ATRA, all-trans retinoic acid]", "values": [
      {"measurement": "glucocorticoid receptor-modulating effect (binding profile)", "setting": "[5]", "value": "does not display any glucocorticoid receptor-modulating effect"}
    ]},
    {"smiles": "C[C@H](NC(=O)[C@H]1CCCO1)[C@H](Oc1ccc(C(=O)O[C@H]2CCCN(C(=O)[C@H]3COC(=O)C3)C2)cc1)c1ccc(C2CC2)cc1", "note": "[LEO 134310]", "values": [
      {"measurement": "potency on transactivation", "setting": "glucocorticoid receptor", "value": "lower potency"},
      {"measurement": "potency on transrepression", "setting": "glucocorticoid receptor", "value": "high potency"}
    ]},
    {"smiles": "C[C@H]1C[C@H]2[C@@H]3CCC4=CC(=O)C=C[C@]4(C)[C@@]3(Cl)[C@@H](O)C[C@]2(C)[C@@]1(O)C(=O)CO", "note": "[beclomethasone]", "values": [
      {"measurement": "anti-inflammatory action (number of attracted neutrophils)", "setting": "zebrafish larvae; 25 μM", "value": "significant anti-inflammatory action"}
    ]}
  ]
}
